Key:
[1] = test system: Tyrosine-protein kinase JAK2 (Homo sapiens), O60674 [V617F]; assay: (§1) Selectivity interaction (Kinase panel (Z-LYTE Assay)) EUB0001632a JAK2; settings: at 10 µM
[2] = target: Tyrosine-protein kinase JAK2 (Homo sapiens, UniProt O60674); assay: as §1; settings: at 10 µM
[3] = target: Estrogen receptor (Homo sapiens) (UniProt P03372); assay: Selectivity interaction (Eurofins CEREP Diversity Profile (receptors and ion channels)) EUB0000279b ESR1; settings: at 10 µM
[4] = target: Bone morphogenetic protein receptor type-1A (Homo sapiens, UniProt P36894); assay: Selectivity interaction (KinomeScan (DiscoverX)) EUB0000666a BMPR1A; settings: at 10 µM
Sequence of Bone morphogenetic protein receptor type-1A (P36894 whole entry): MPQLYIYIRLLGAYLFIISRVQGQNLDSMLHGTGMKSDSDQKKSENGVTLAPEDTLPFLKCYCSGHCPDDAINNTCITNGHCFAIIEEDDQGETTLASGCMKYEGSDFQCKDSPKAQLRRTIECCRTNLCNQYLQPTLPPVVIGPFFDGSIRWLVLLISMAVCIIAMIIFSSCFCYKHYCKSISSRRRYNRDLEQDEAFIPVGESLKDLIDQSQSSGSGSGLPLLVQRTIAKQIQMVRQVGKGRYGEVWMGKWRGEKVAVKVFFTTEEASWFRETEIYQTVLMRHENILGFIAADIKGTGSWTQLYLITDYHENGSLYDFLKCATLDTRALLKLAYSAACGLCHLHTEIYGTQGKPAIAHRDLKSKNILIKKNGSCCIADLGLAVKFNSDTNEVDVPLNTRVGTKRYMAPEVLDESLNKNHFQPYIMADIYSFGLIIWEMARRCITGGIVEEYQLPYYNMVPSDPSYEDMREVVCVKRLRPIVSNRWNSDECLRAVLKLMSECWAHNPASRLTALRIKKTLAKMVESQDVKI

[5] = target: Serine/threonine-protein kinase Nek7 (Homo sapiens) (UniProt Q8TDX7); assay: Selectivity interaction (KinomeScan (DiscoverX)) EUB0000666a NEK7; settings: at 10 µM
Sequence of Serine/threonine-protein kinase Nek7 (Homo sapiens) (Q8TDX7 whole entry, looked up): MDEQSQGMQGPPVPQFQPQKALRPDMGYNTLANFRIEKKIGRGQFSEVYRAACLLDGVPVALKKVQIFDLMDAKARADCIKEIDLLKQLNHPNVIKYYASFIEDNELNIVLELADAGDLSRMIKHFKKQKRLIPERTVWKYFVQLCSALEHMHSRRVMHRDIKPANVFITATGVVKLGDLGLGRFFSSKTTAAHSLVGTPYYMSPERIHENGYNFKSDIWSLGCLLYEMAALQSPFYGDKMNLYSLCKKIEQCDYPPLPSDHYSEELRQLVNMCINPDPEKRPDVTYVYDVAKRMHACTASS

[6] = target: Cyclin-dependent kinase 14 (Homo sapiens) (UniProt O94921); settings: at 10 µM
Sequence of Cyclin-dependent kinase 14 (Homo sapiens) (O94921 whole entry): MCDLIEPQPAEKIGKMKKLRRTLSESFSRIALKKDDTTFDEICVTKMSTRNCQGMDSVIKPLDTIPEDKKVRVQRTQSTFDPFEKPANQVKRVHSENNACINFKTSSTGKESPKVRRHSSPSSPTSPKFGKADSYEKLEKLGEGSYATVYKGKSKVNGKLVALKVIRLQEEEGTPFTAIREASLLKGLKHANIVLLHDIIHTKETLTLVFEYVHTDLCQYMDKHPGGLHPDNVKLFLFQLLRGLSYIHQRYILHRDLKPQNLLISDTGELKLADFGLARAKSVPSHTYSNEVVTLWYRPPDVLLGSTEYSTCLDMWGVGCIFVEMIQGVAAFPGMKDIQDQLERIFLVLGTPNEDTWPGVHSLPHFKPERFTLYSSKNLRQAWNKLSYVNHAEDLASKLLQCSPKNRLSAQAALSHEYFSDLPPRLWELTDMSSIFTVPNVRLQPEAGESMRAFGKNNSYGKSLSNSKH

[7] = target: Cyclin-dependent kinase 18 (Homo sapiens) (UniProt Q07002); assay: Selectivity interaction (ActivX KiNativ screen (kinase selectivity in THP-1 cell lysates)) EUB0000639a CDK18; type: subcellular; settings: lysate, at 0.2 µM
Sequence of Cyclin-dependent kinase 18 (Homo sapiens) (Q07002 whole entry): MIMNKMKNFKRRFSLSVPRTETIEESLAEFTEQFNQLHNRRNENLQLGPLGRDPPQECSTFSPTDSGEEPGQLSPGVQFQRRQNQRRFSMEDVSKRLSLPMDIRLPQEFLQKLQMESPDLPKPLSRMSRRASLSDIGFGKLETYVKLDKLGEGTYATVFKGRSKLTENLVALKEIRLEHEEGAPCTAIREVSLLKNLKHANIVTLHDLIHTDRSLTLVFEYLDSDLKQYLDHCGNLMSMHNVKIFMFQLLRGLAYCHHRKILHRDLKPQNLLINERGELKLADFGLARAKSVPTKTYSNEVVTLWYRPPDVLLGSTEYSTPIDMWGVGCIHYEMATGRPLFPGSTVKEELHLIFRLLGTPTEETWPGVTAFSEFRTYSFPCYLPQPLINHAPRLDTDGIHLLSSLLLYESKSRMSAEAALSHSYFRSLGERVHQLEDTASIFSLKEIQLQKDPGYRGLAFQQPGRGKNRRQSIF

[8] = target: Protein kinase C gamma type (Homo sapiens) (UniProt P05129); assay: Selectivity interaction (Kinase panel (Invitrogen)) EUB0000639a PRKCG; settings: at 200 nM
[9] = target: T1, Serine/threonine-protein kinase Nek9 (Homo sapiens) (UniProt Q8TD19); assay: Selectivity interaction (ProQinase) EUB0000171b NEK9
T1 sequence (whole entry): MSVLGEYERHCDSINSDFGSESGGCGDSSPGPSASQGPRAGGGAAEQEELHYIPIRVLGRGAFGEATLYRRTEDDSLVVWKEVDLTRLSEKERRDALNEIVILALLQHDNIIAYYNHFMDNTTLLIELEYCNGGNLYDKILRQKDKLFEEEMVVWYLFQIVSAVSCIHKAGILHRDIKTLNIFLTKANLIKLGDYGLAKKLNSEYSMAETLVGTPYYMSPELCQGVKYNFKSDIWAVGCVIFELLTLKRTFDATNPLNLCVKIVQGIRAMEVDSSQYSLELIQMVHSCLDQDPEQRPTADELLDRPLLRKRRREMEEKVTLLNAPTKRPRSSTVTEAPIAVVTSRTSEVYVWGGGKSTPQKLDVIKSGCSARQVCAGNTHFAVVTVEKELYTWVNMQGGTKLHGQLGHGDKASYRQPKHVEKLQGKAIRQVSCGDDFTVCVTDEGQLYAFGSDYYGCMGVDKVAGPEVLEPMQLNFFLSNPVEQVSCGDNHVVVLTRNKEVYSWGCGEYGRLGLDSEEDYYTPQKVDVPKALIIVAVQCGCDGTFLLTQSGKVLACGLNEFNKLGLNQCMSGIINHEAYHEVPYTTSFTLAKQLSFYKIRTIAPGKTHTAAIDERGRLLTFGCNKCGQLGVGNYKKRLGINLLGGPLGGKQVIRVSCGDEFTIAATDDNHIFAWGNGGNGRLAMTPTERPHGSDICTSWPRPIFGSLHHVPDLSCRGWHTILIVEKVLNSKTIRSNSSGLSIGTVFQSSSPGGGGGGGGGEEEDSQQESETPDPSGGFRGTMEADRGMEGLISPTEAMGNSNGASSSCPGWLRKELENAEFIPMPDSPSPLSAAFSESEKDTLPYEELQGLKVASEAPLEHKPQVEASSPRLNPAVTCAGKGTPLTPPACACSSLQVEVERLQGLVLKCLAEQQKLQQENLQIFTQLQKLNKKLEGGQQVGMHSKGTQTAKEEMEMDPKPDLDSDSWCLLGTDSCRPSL

[10] = target: Fibroblast growth factor receptor 2 (Homo sapiens) (UniProt P21802); assay: Selectivity interaction (Ambit KINOMEscan and KiNATiv profiling in Jurkat cells) EUB0000090b FGFR2; type: cell-based; settings: at 1 µM
[11] = target: Tyrosine-protein kinase Fgr (Homo sapiens) (UniProt P09769); assay: Selectivity interaction (KinomeScan (DiscoverX)) EUB0000655a FGR; settings: at 10 µM
[12] = target: Citron Rho-interacting kinase (Homo sapiens) (UniProt O14578); assay: Selectivity interaction (KinomeScan (DiscoverX)) EUB0000045b CIT
Sequence of Citron Rho-interacting kinase (Homo sapiens) (O14578 whole entry): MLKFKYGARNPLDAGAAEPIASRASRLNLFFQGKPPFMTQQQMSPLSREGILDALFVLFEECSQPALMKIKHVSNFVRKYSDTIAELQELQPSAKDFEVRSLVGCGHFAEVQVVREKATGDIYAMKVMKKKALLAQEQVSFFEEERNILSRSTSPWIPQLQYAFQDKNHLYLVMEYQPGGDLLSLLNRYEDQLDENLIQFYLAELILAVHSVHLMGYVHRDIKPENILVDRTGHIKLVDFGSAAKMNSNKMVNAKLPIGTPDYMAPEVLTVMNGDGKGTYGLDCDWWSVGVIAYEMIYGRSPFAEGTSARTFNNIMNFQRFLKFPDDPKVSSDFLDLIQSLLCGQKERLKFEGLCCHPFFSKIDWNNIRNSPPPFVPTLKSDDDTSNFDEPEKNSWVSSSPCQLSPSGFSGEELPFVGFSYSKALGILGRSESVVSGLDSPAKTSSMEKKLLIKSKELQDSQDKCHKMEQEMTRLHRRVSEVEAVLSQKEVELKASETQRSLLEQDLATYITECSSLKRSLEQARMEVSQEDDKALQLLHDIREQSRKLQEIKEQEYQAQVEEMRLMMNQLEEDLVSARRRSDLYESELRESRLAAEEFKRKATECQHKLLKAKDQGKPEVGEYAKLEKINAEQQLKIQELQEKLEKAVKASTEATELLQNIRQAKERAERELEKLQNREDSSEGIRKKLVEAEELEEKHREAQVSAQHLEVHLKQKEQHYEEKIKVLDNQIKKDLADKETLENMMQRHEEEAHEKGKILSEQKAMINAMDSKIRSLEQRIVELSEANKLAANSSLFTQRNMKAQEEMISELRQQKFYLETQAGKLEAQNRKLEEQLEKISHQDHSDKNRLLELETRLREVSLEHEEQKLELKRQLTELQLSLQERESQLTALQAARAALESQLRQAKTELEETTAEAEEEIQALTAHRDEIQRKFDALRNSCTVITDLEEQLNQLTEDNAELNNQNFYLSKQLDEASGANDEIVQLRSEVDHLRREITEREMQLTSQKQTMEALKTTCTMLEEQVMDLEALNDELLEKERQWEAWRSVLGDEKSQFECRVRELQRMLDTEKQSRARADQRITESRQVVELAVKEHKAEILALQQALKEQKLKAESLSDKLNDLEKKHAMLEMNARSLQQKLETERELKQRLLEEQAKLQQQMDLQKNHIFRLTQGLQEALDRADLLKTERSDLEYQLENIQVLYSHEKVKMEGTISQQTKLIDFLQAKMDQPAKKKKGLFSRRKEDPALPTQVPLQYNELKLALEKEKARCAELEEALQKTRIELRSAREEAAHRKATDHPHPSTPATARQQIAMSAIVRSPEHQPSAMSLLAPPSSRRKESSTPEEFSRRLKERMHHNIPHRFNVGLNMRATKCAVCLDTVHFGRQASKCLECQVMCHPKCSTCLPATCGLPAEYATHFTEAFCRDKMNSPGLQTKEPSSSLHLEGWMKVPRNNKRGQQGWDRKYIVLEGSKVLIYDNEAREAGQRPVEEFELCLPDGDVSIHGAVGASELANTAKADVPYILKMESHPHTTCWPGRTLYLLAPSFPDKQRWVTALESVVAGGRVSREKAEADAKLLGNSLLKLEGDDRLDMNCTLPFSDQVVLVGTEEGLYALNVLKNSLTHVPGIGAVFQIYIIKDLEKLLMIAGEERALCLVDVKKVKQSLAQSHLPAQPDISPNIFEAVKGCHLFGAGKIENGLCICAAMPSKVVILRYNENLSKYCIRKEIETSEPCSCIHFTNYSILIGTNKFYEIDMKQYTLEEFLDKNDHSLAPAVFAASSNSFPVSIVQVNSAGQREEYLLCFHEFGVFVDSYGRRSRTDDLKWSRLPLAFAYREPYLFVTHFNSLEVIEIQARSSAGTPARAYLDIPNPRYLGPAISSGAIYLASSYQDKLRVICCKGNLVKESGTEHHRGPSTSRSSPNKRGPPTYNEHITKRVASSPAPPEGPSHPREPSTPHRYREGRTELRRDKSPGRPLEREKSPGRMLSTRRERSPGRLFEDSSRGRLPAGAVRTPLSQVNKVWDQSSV

[13] = target: Protein-tyrosine kinase 6 (Homo sapiens, UniProt Q13882); assay: Selectivity interaction (KinomeScan (DiscoverX)) EUB0000229b PTK6; settings: at 10 µM
[14] = target: T2, Serine/threonine-protein kinase Nek3 (Homo sapiens) (UniProt P51956); assay: Selectivity interaction (KinomeScan (DiscoverX)) EUB0000092b NEK3; settings: at 10 µM
T2 sequence (whole entry): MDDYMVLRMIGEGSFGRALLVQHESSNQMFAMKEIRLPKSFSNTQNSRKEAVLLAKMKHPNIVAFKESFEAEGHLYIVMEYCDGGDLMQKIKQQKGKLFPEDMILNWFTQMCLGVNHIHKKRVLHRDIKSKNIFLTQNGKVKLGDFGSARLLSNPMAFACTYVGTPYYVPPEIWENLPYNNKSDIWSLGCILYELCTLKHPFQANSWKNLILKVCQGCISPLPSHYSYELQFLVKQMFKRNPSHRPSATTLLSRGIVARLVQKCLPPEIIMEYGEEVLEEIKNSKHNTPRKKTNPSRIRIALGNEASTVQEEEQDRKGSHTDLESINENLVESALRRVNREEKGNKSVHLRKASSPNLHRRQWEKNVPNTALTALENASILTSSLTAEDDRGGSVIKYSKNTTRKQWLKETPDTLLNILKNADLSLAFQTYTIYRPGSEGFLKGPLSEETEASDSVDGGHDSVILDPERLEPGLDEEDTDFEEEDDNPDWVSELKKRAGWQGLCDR

[15] = test system: Epidermal growth factor receptor (Homo sapiens), P00533 [UNDEFINED MUTATION]; settings: at 10 µM
[16] = target: Casein kinase I isoform gamma-1 (Homo sapiens) (UniProt Q9HCP0); assay: Selectivity interaction (KinomeScan (DiscoverX)) EUB0000618a CSNK1G1; settings: at 10 µM

Sequence of Tyrosine-protein kinase JAK2 (O60674 whole entry): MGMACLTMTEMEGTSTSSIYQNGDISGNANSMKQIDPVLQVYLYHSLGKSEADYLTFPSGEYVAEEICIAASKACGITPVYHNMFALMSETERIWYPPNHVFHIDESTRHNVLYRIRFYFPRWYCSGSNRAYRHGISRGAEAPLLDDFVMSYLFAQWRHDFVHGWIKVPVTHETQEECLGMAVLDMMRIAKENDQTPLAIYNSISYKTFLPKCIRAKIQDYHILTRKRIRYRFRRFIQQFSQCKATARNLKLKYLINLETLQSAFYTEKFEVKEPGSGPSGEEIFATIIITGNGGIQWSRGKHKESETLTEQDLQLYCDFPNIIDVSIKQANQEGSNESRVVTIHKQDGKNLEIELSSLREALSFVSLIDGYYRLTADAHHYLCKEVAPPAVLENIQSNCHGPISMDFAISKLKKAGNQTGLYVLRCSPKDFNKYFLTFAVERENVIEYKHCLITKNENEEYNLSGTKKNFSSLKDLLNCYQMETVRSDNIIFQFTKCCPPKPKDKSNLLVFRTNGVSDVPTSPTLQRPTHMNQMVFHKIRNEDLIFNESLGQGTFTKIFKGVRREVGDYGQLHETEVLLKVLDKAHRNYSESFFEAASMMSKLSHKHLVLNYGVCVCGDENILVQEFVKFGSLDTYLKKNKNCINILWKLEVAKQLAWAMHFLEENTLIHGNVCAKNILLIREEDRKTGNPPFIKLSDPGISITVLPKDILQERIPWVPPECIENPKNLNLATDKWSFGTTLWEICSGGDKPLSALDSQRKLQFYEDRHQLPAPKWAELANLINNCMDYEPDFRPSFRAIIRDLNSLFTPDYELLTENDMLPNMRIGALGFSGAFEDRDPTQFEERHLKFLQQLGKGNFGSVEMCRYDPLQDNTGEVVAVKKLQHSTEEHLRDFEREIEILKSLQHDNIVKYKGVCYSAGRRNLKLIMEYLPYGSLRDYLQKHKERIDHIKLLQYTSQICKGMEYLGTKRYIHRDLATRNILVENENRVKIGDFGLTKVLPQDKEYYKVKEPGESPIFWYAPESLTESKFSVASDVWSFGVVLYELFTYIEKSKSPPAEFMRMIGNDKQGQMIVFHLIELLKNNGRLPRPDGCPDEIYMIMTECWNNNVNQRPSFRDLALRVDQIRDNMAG
Sequence of Tyrosine-protein kinase JAK2 (Homo sapiens), O60674 [V617F] (O60674 whole entry V617F): as the sequence (O60674 whole entry) above, with V617F counted along it

Cn1cc(-n2cnc3c(NCc4nc5cc(Cl)c(Cl)cc5[nH]4)nc(N4CCOCC4)nc32)cn1
% of control [1]: -2.15%
% of control [2]: -3.18%

CC(=O)c1cc(-c2ccccc2OCC2CC2)c2ncccn12
% of control [3]: 98%

O=C(NOC[C@H](O)CO)c1ccc(F)c(F)c1Nc1ccc(I)cc1F
% of control [4]: 100%
% of control [5]: 95%

CCN(CC)CCCCNc1ncc2cc(-c3cc(OC)cc(OC)c3)c(NC(=O)NC(C)(C)C)nc2n1
% of control [6]: 100%

CC[C@@H]1[C@H](F)C(=O)N[C@@H]1COc1nccc2cc(C(N)=O)c(OC)cc12 [ZIMLOVISERTIB]
% of inhibition [7]: 0.4%
% of inhibition [8]: 12.1%

C=CC(=O)Nc1cccc(C(=O)Nc2ccc(Nc3cc(-c4[nH]c(SC)nc4C)ccn3)cc2)c1
% of control ([9]; at 1 µM): 97%
% of control ([9]; at 5 µM): 73%

CN(C)C/C=C/C(=O)Nc1ccc(C(=O)N2CCCC(Nc3ncc(Cl)c(-c4c[nH]c5ccccc45)n3)C2)cc1 (stereo not drawn)
% of control [10]: 67%

CN(C)CCOc1ccc(-c2nc(-c3ccncc3)c(-c3ccc4c(c3)CC/C4=N\O)[nH]2)cc1
% of control [11]: 87%

C=CC(=O)Nc1cc(-n2c(=O)ccc3cnc4ccc(-c5ccc(NS(C)(=O)=O)cc5)cc4c32)ccc1C
% of control ([12]; at 1 µM): 83%
% of control ([12]; at 10 µM): 53%

COc1cc(N(C)c2ccnc3ccc(C(F)(F)F)cc23)cc(OC)c1OC
% binding [13]: 94%

CCC(=O)N1CCN(c2ccc(-n3c(=O)ccc4cnc5ccc(-c6cnc7ccccc7c6)cc5c43)cc2C(F)(F)F)CC1
% of control [14]: 100%

Cc1cc([C@@H](C)Nc2ccccc2C(=O)O)c2nc(N3CCOCC3)cc(=O)n2c1 [AZD-6482]
% of control [15]: 100%

O[C@H]1CC[C@H](Nc2ncc3nc(Nc4c(F)cc(F)cc4F)n([C@H]4CCOC4)c3n2)CC1
% of control [16]: 100%

Source: ChEMBL document CHEMBL5465560, “Selectivity Literature for EUbOPEN Chemogenomic Library” (2024)
